Results published in article PMC10386886, “First-in-class multifunctional TYMS nonclassical antifolate inhibitor with potent in vivo activity that prolongs survival” (JCI Insight, 2023).

Molecular target: T1, purified human TYMS (Homo sapiens, UniProt P04818)
T1 construct: 6xHis (N); made in house; host or cells: E. coli BL21 (DE3), vector pQE80L-hTYMS
Assay: Competitive drug displacement assay (tritium TYMS assay)
Type: biochemical
Protocol: For these experiments the TYMS protein was first incubated with each drug, and the reaction was then initiated by addition of 5,10-mTHF and dUMP using different concentrations of either 5,10-mTHF or dUMP to change the substrate/drug ratio. If there was competition between one of the substrates and the drug for the same binding site, then increasing the substrate concentration would displace more of the prebound drug and shift the equilibrium toward the enzyme/substrate complex, thus allowing the conversion of dUMP to proceed (Figure 7A). […]
all components including 2 µg TYMS protein to show the range of the assay, the background signal, and the dependence on 5,10-mTHF (Supplemental Figure 2C). To determine the signal from the [5-3H]dUMP tracer used in each reaction the same amount of the dUMP substrate with the [5-3H]dUMP tracer accounting for 0.06% of the final dUMP concentration was added directly to 5 mL of ultima gold liquid scintillation cocktail (Supplemental Figure 2C).
All reactions were performed in biological duplicate and technical duplicate. Results were analyzed using GraphPad Prism 9.
Competitive drug displacement assay
The tritium based TYMS catalytic activity assay was modified to determine if TYMS inhibition from 19-S, 19-S5, and 19-S7 was the result of competitive binding with either the dUMP substrate or the 5,10-mTHF cofactor. The competitive drug displacement assay utilized the standard reaction conditions for the tritium-based TYMS catalytic activity assay including 40 µM dUMP (Sigma Aldrich, Cat # D3876) with the [5- 3H]dUMP tracer (ViTrax, VT122) accounting for 0.06% of the final dUMP concentration and 100 µM 5,10- methylene tetrahydrofolate (defined as 1x dUMP and 1x 5,10-mTHF). Concentrations of total dUMP and 5,10- mTHF were then changed relative to these 1x concentrations to concisely indicate the changes in either the substrate or cofactor concentration. The highest 5x concentration of 5,10 - […]
5x concentration of total dUMP was not limited by solubility, although increases were performed in the same increments as 5,10-mTHF for comparison and 0.06% of the [5-3H]dUMP tracer was maintained at all concentrations. The remaining components in each 200 µL reaction were consistent in all reactions and included 2 µg of purified human TYMS in 50 mM KH2PO4 (Sigma Aldrich, Cat # P0662) and 100 mM β- mercaptoethanol (Sigma Aldrich, Cat # M7522). Control antifolate inhibitor PEM (Sigma Aldrich, Cat # PHR1596) was performed for reference of a TYMS specific classical antifolate and to […]
Human TYMS and DHFR preparation
Human Thymidylate Synthase (hTYMS) and human Dihydrofolate Reductase (hDHFR) were both expressed in BL21 (DE3) E. coli cells, using a standard BL21 transformation protocol, with the expression vector pQE80L-hTYMS (gift from Maria Paola Costi, University of Modena and Reggio Emilio, Italy) and pET100/D- TOPO (Invitrogen, Cat # K10001), respectively. Both vectors contained an N-terminal 6x Histidine tag attached to either hTYMS or hDHFR. After bacterial transformation, cells

[1] = TS preincubated with drug, Figure 7

T1 sequence (P04818 whole entry): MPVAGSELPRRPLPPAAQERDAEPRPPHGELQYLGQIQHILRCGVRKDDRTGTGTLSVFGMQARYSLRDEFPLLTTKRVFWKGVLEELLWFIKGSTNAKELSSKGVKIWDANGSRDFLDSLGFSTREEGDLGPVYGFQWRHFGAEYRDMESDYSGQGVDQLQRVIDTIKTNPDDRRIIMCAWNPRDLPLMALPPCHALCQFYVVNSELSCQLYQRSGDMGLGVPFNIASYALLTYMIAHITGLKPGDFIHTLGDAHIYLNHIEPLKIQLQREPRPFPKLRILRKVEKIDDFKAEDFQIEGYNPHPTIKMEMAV

## CCc1nc(N)nc(N)c1-c1ccc(N(C)Cc2ccc3c(c2)OCO3)c([N+](=O)[O-])c1 [Compound 19-S7]
  Mechanism of TYMS inhibition: blocking the folate-binding site
[1]
  dUMP conversion with increasing 5,10-mTHF concentration: increased the amount of dUMP conversion
  dUMP conversion with increasing dUMP concentration: the amount of dUMP conversion did not increase
